Data taken from patent US5824657A, “Aminoacyl sulfamides for the treatment of hyperproliferative disorders” (priority 1997, dated 1998).

Tests used:
[1] = system: bacterial growth; details: Osada and Isono 1985; cited from earlier work
[2] = system: human epidermoid carcinoma cell line A-253 (ATCC HTB 41); assay: MTT assay, human epidermoid carcinoma cell line; assay type: cell-based; details: A253, MTT assay, exposure 72 hours, plot extended by eye for compounds active at lowest dose, read-out: IC50 Human Epidermoid Carcinoma Cells ATCC # HTB 41
Method: The MTT assay was used as a model to measure the inhibitory effects of the compounds of Formula I. The MTT assay is considered the most convenient modern assay for the determination of cell viability and cell proliferation. An MTT assay kit is commercially available (Chemicon International Inc., Temecula, Calif.). The MTT assay was performed according to manufacturer's instructions as outlined below.
A human epidermoid carcinoma cell line, designated as A-253 (ATCC HTB 41), was obtained in frozen vials from the American Type Culture Collection, Rockville, Md. Monolayer cultures were established from the vials by growth in RPMI 1640 medium supplemented with 10% fetal bovine serum (heat-inactivated), 2 mM L-glutamine, and pen-strep (100 units/ml; 100 μg/ml). The cultures were incubated at 37±1.5° C. in 5±1% CO2 in humidified air and were passaged weekly to avoid overgrowth. The laboratory cultures used for the present study were at passage seven after receipt of frozen stocks from ATCC.
Compounds of Formula I in powder form were stored at room temperature in plastic micro centrifuge tubes. Each tube was placed in a plastic bag containing desiccant. Each test compound was prepared as a 2 mg/ml solution in RPMI 1640 medium (non-supplemented) on the day of use, and the appropriate dilutions were prepared with the same vehicle.
Each compound was handled by sterile techniques in Class II, Type B biological safety cabinets.
The reference control compound was methotrexate at concentrations of 0.5 μg/ml to 50 μg/ml. A 1 mg/ml stock was prepared on the day of dosing and diluted to the appropriate concentrations using RPMI 1640 medium (non-supplemented).
A blank control was included in the MTT assay in order to determine the absorbance associated with the absence of any cells. This control was RPMI 1640 culture medium carried through the same procedures used to culture the cells in the microwell plates and to conduct the MTT assay color development. The microwell plate reader was zeroed against the blank control prior to recording the absorbance in the test wells.
Laboratory monolayer cultures of A-253 cells were trypsinized and seeded at a concentration of 24,000 cells in 0.05 ml of complete RPMI 1640 culture medium per well in 96-well plates. Eight wells in a column were seeded for each test condition. The blank control was prepared by adding 0.05 ml of culture medium (no cells) to 8 wells in the first column of each plate. A separate microwell plate was used for each compound of Formula I.
The test compound treatments were initiated immediately after seeding the cells by adding 0.05 ml of treatment medium to each microwell. Ten different test compound concentrations were prepared in culture medium (without serum), and each concentration was applied to a volume of eight wells on the appropriate plate. The final concentrations in the wells were 1000, 500, 250, 100, 50, 25, 10, 5, 2.5, and 1 μg/ml.
An untreated (zero-dose) condition was included as a column of 8 wells on each plate. The zero-dose and blank control wells received 0.05 ml of culture medium (without serum). The microwell plates were placed in an incubator at 37±1.5° C. in 5% CO2 in humidified air for an exposure period of 72±0.5 hours.
After the exposure period, 0.1 ml of MTT dye solution (0.5 mg/ml in serum free RPMI 1640 medium) was added to each micowell. The cultures were returned to the incubator for 2±0.1 hours. Then the medium was removed from each well and placed into a clean microwell plate for temporary storage. A volume of 0.1 ml of color development solution (Solution C, isopropanol with 0.04M HCl, Chemicon MTT Assay kit, Chemicon International Inc., Temecula, Calif.) was added to each new microwell. The contents were carefully mixed and allowed to sit at room temperature for approximately 1 hour. The medium that was saved from each microwell then was pipetted back into the well from which it originally came. […]

[3] = system: normal human skin fibroblasts cell line ATCC CRL 1501; assay: MTT assay, normal skin fibroblasts; assay type: cell-based; details: Skin fibroblast, similar manner to HTB 41 assay
Method: The MTT assay was used as a model to measure the inhibitory effects of the compounds of Formula I. The MTT assay is considered the most convenient modern assay for the determination of cell viability and cell proliferation. […] The MTT assay was performed according to manufacturer's instructions as outlined below.
The cultures were returned to the incubator for 2±0.1 hours. Then the medium was removed from each well and placed into a clean microwell plate for temporary storage. A volume of 0.1 ml of color development solution (Solution C, isopropanol with 0.04M HCl, Chemicon MTT Assay kit, Chemicon International Inc., Temecula, Calif.) was added to each new microwell. […] The absorbance at 540 nm wavelength was determined in a microwell plate reader within two hours of the final preparation of the plates.
The absorbance at 540 nm was recorded for each well by the microwell plate reader after the instrument was zeroed against the blank controls for each plate. The mean absorbance for each test condition was calculated and compared to the mean absorbance for the zero-dose wells in order to obtain percent values. […]

[4] = system: aminoacyl-tRNA synthetases (aaRS) isolated from HeLa cells; assay: IC50 determination, aaRS charging and trichloroacetic acid precipitation assay, aaRS partially purified from HeLa cell extracts; assay type: biochemical; details: preincubation 20 minutes at 25° C., reaction 5-20 minutes
Method: IC50 determinations for the aminoacyl-tRNA synthetases (aaRS) isolated from HeLa cells were carried out using a modification of the aaRS charging and trichloroacetic acid precipitation assay described previously (see examples: D. Kern et. al., Biochemie, 61, 1257-1272 (1979) and J. Gilbart et. al. Antimicrobial Agents and Chemotherapy, 37(1), 32-38 (1993)). […] For practical purposes, the minimal acceptable value is approximately 2000 cpm per 10 minute reaction. The final dilution of the HeLa extract in the assays for the aaRS enzymes varies from 50 to 1200-fold.
Test compounds were typically present as serial dilutions in concentrations ranging from 0.35 nM to 35 μM. Test compound solutions were prepared by dissolving test compounds in 100% dimethyl sulfoxide and diluting to the final concentration with 50 mM HEPES, pH 7.5. IC50 determinations were typically performed in duplicate with each experiment containing 4-8 concentrations of test compound and with duplicate controls containing no inhibitor.
The reaction was incubated at 25° C. for 5-20 minutes. At specified time points a 15 microliter aliquot was removed and added to a well of a Millipore filtration plate (Multiscreen-FB, MAFB NOB 10) containing 100 microliters of cold 5% (wt/vol) trichloroacetic acid. Trichloroacitic acid precipitable material was collected by filtration on a Millipore Multiscreen filtration station, washed twice with cold 5% trichloroacetic acid, twice with water, and dried. Plates were typically allowed to air dry for several hours or baked at 50° C. in a vacuum oven for 30 minutes. The radioactivity on the dried plates was quantitated by the addition of Packard Microscint-20 to the wells and counting with a Packard TopCount scintillation counter.
Inhibitor activity typically was reported as a percentage of the control aaRS activity. […] The IC50 (in nM, Hela Cells) values of representative compounds of the present invention are listed in column 5 of Table I.

[5] = Acute toxicity in the mouse, intraperitoneal
Method: Six groups containing 5 CD-1 female mice (Charles River Lab, Mass.) weighing 19-23 g were used in the experiment. Water and Agway rodent chow were provided ad libitum throughout the study. The laboratory animals were handled according to the institutional animal husbandry Standard Operating Procedures.
The solution was filtered with 0.2 μm Nalgene syringe filter and then further diluted serially with normal saline by 5-fold (0.6 ml to 3.0 ml) to 0.016 mg/ml. Group 1 animals were injected intraperitoneally (i.p.) with 10 ml/kg normal saline as negative controls. Groups 2 to 6 were given Compound XIV i.p. at 100, 20, 4, 0.8 and 0.16 mg/kg, respectively.
The LD50 of the compound was calculated by the Method of Probits (See Probit Analysis, 3rd Edition, D. J. Finney, Cambridge University Press, Cambridge, 1971). All surviving animals were sacrificed after the last observation on seventh day post-treatment.

[6] = assay type: in vitro ADME, human
Method: Five formulations of Compound XIV were prepared for in vitro study. The formulations are represented in Table III
Franz static diffusion chambers were filled with a 4% BSA isotonic buffered saline and equilibrated to a temperature of 37° C. by a circulating water pump. Excised human cadaver skin (~0.2 mm thickness), which is either intact or tape-stripped, is placed onto each chamber.
The test formulations containing non-radioactive Compound XIV were spiked with tritiated Compound XIV. The specific radioactivity was about 0.05 μCi/mg test formulation. Spiked formulations were applied to the skin surface. The specific radioactivity in the stratum corneum, epidermis, dermis and the reservoir were measured at 1, 3, 6 and 24 h time points by liquid scintillation counting, to investigate cumulative penetration at each time point. The specific activity is expressed as a percentage relative to the total recovery from the reservoir, skin wipes, and the respective skin layers at the end of each experiment.
Each of the five formulations were tested on intact skin (5 replicates each) and tape-stripped skin (only in one diffusion cell) to investigate cumulative penetration at 0, 1, 3, 6, and 24 hours and tissue recovery was measured at 24 hours. […]

Row | Structure (SMILES) | inhibition of bacterial growth [1] | IC50 [2] [µM] | IC50 [3] [µM] | IC50 [4] [nM] | mortality ([5]; i.p. 100 mg/kg (group 2)) | 95% confidence limit of the LD50 ([5]; mouse, in vivo, ip) [mg/kg] | LD50 at 168 h ([5]; mouse, in vivo, ip) [mg/kg] | tolerability ([5]; mouse, in vivo, ip) | body weight loss after injection ([5]; mouse, in vivo, ip, 20 mg/kg) | symptoms after dosing ([5]; mouse, in vivo, ip, 20 mg/kg) | symptoms after dosing ([5]; mouse, in vivo, ip, 100 mg/kg) | penetration of target tissue, epidermis [6]
1 | C[C@H](N)C(=O)NS(=O)(=O)OC[C@H]1O[C@@H](n2cnc3c(N)nc(Cl)nc32)[C@H](O)[C@@H]1O [ascamycin] | ineffective inhibitor against bacterial growth |  |  |  |  |  |  |  |  |  |  | 
2 | Nc1ncnc2c1ncn2[C@@H]1O[C@H](CNS(=O)(=O)NC(=O)[C@@H](N)Cc2ccccc2)[C@@H](O)[C@H]1O [Compound XIV, 5'-deoxy-adenosine 5'-N-(N-L-phenylalanyl)sulfamide] |  | 0.53 | 5.58 | 5 | Most of the group 2 mice died between 8 to 24 hours after injection | 24 to 63 | 44 | a high dose of Compound XIV was tolerated | about 10% | no unusual symptoms observed | showed loose hair starting at 3-4 hours after dosing and they also lost their appetite and became less active | penetrates the target tissue, epidermis, in significant concentration at 6 hours and levels are generally increased at 24 hours
